The results in this text go back to PubChem BioAssay AID248 (DTP/NCI, 2004).

“And” between values parts separate entries of the source, which are not always exact repeats. Identical values can stand only once. Toxic doses and inconclusive results are not listed.

This test relates to L1210 leukemia ip in BDF1 mice, survival T/C. Briefly: NCI In Vivo Anticancer Drug Screen. Data for tumor model L1210 Leukemia (intraperitoneal) in B6D2F1 (BDF1) mice. Conditions: endpoint: mean survival time, higher = longer survival. The method, boiled down:
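Transplanted-tumor mice were given test agent; controls received vehicle only. Survival readings from the two groups were divided (treated over control).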

[1] abbreviates: dose: 100.0 mg/kg/injection, schedule: Q04DX003 (ip), vehicle: saline with Tween-80.
Where [2] appears, read: dose: 200.0 mg/kg/injection, schedule: Q04DX003 (ip), vehicle: saline with Tween-80.
[3] abbreviates: dose: 100.0 mg/kg/injection, schedule: Q01DX001 (ip), vehicle: Klucel (hydroxypropylcellulose) (HPC).
The mark [4] stands for this setting: dose: 200.0 mg/kg/injection, schedule: Q01DX001 (ip), vehicle: Klucel (hydroxypropylcellulose) (HPC).
The mark [5] stands for this setting: dose: 50.0 mg/kg/injection, schedule: Q01DX009 (ip), vehicle: saline with Tween-80.
Where [6] appears, read: dose: 100.0 mg/kg/injection, schedule: Q01DX009 (ip), vehicle: saline with Tween-80.
[7] abbreviates: dose: 200.0 mg/kg/injection, schedule: Q01DX001 (ip), vehicle: carboxymethylcellulose (CMC).
The mark [8] stands for this setting: dose: 400.0 mg/kg/injection, schedule: Q01DX001 (ip), vehicle: carboxymethylcellulose (CMC).
Setting [9] is: dose: 100.0 mg/kg/injection, schedule: Q04DX003 (ip), vehicle: Klucel (hydroxypropylcellulose) (HPC).
Setting [10] is: dose: 200.0 mg/kg/injection, schedule: Q04DX003 (ip), vehicle: Klucel (hydroxypropylcellulose) (HPC).
[11] abbreviates: dose: 400.0 mg/kg/injection, schedule: Q04DX003 (ip), vehicle: Klucel (hydroxypropylcellulose) (HPC).
Setting [12] is: dose: 100.0 mg/kg/injection, schedule: Q01DX009 (ip), vehicle: Klucel (hydroxypropylcellulose) (HPC).
The mark [13] stands for this setting: dose: 200.0 mg/kg/injection, schedule: Q01DX009 (ip), vehicle: Klucel (hydroxypropylcellulose) (HPC).
[14] abbreviates: dose: 400.0 mg/kg/injection, schedule: Q01DX009 (ip), vehicle: Klucel (hydroxypropylcellulose) (HPC).
The mark [15] stands for this setting: dose: 100.0 mg/kg/injection, schedule: Q01DX001 (ip), vehicle: saline.
[16] abbreviates: dose: 200.0 mg/kg/injection, schedule: Q01DX001 (ip), vehicle: saline.
[17] abbreviates: dose: 400.0 mg/kg/injection, schedule: Q01DX001 (ip), vehicle: saline.

Regarding `CC(C)CCCC(C)C1CCC2C3CC=C4CC(C(=O)NN)CCC4(C)C3CCC12C` (stereo unspecified), the T/C was 96 % of control under setting [1]; 96 % of control under setting [2]; 98 % of control (dose: 400.0 mg/kg/injection, schedule: Q04DX003 (ip), vehicle: saline with Tween-80).
For `Cc1ccccc1C[As](C)(=O)O`, the T/C by setting is: under setting [3], 98 % of control; under setting [4], 118 % of control.
With `NC(=O)c1cc(C(N)=O)cc([N+](=O)[O-])c1`, the T/C under setting [5] is 101 % of control, the T/C under setting [6] was 101 % of control, the T/C under setting [1] was 100 % of control and the T/C under setting [2] is 96 % of control.
On to `O=C1OCc2cc[n+]([O-])cc21`, for which the T/C runs as follows: (dose: 100.0 mg/kg/injection, schedule: Q01DX001 (ip), vehicle: carboxymethylcellulose (CMC)) 97 % of control; under setting [7], 96 % of control; under setting [8], 107 % of control.
For the molecule `O=C1C=C(OCc2ccccc2)C(=O)C(OCc2ccccc2)=C1`, the T/C is 93 % of control under setting [9], 96 % of control under setting [10] and 95 % of control under setting [11].
As to `C=CCC(Cc1ccccc1)NCC1CC1` (stereo unspecified), the T/C runs as follows: (dose: 6.25 mg/kg/injection, schedule: Q04DX002 (ip), vehicle: saline with Tween-80) 114 % of control; (dose: 12.5 mg/kg/injection, schedule: Q04DX002 (ip), vehicle: saline with Tween-80) 104 % of control; (dose: 25.0 mg/kg/injection, schedule: Q04DX002 (ip), vehicle: saline with Tween-80) 111 % of control.
In the case of `CC(C)N(C(=O)Nc1ccccc1Cl)c1ccccc1`, the T/C was 96 % of control under setting [12]; 92 % of control under setting [9]; 92 % of control under setting [13]; 100 % of control under setting [10]; 97 % of control under setting [14]; 92 % of control under setting [11].
As for `O=C(O)CC(C(=O)O)(c1c[nH]c2ccccc12)c1c[nH]c2ccccc12`, the T/C is 89 % of control (dose: 75.0 mg/kg/injection, schedule: Q01DX001 (ip), vehicle: carboxymethylcellulose (CMC)); 93 % of control (dose: 150.0 mg/kg/injection, schedule: Q01DX001 (ip), vehicle: carboxymethylcellulose (CMC)); 90 % of control (dose: 300.0 mg/kg/injection, schedule: Q01DX001 (ip), vehicle: carboxymethylcellulose (CMC)).
As to `CC(C)C1=CC23CCC4C(C)(C(=O)O)CCCC4(C)C2CC1C1C(=O)c2ccccc2C(=O)C13` (stereo unspecified), the T/C reads like this: under setting [15], 90 % of control; under setting [16], 95 % of control; under setting [17], 91 % of control.
For `O=C(O)CCC(=O)NCCNC(=O)CC(=O)O`, in that order: 100 % of control, 105 % of control and 100 % of control.
Turning to `O=C(Nc1ccc([N+](=O)[O-])cc1)C(Cl)(Cl)Cl`, the T/C was 94 % of control (dose: 50.0 mg/kg/injection, schedule: Q01DX001 (ip), vehicle: Klucel (hydroxypropylcellulose) (HPC)); 95 % of control under setting [3]; 97 % of control under setting [4].
As for `O=C(/C=C\c1ccc(NCc2ccc(C(=O)O)cc2)cc1)CCl`, the T/C is, setting by setting: (dose: 25.0 mg/kg/injection, schedule: Q04DX003 (ip), vehicle: Klucel (hydroxypropylcellulose) (HPC)) 100 % of control; (dose: 50.0 mg/kg/injection, schedule: Q01DX001 (ip), vehicle: carboxymethylcellulose (CMC)) 91 % of control; (dose: 50.0 mg/kg/injection, schedule: Q04DX003 (ip), vehicle: Klucel (hydroxypropylcellulose) (HPC)) 90 % of control; under setting [9], 95 % of control; under setting [7], 93 % of control; under setting [8], 98 % of control.
On to `CNc1ccc(Cl)cc1C`, for which the T/C (dose: 100.0 mg/kg/injection, schedule: Q04DX002 (sc), vehicle: olive oil, sesame oil, peanut oil) is 103 % of control; the T/C (dose: 200.0 mg/kg/injection, schedule: Q04DX002 (sc), vehicle: olive oil, sesame oil, peanut oil) was 110 % of control; the T/C (dose: 400.0 mg/kg/injection, schedule: Q04DX002 (sc), vehicle: olive oil, sesame oil, peanut oil) was 100 % of control.
For `C=C1CC(CCCCCC2CC(=C)C(=O)O2)OC1=O` (stereo unspecified), the T/C (dose: 12.5 mg/kg/injection, schedule: Q04DX002 (ip), vehicle: saline) is 94 % of control; the T/C (dose: 25.0 mg/kg/injection, schedule: Q04DX002 (ip), vehicle: saline) was 94 % of control; the T/C (dose: 50.0 mg/kg/injection, schedule: Q04DX002 (ip), vehicle: saline) is 102 % of control.
With `O=C1Cc2ccccc2C(=O)N1Nc1ccccc1`, the T/C is 96 % of control (dose: 22.0 mg/kg/injection, schedule: Q01DX001 (ip), vehicle: saline); 91 % of control (dose: 33.0 mg/kg/injection, schedule: Q01DX001 (ip), vehicle: saline); 93 % of control and 101 % of control (dose: 50.0 mg/kg/injection, schedule: Q01DX001 (ip), vehicle: saline); 95 % of control (dose: 75.0 mg/kg/injection, schedule: Q01DX001 (ip), vehicle: saline); 101 % of control under setting [15]; 95 % of control under setting [16]. Besides, under setting [17], the T/C was 95 % of control.
In the case of `S=c1[nH]n(-c2ccccc2)c(=S)s1`, the T/C under setting [15] is 100 % of control and the T/C under setting [16] was 105 % of control.
`CCCCCCC#CC(=O)OCCCCCC`: the T/C reads like this: (dose: 100.0 mg/kg/injection, schedule: Q04DX002 (ip), vehicle: saline) 108 % of control; (dose: 200.0 mg/kg/injection, schedule: Q04DX002 (ip), vehicle: saline) 94 % of control; (dose: 400.0 mg/kg/injection, schedule: Q04DX002 (ip), vehicle: saline) 97 % of control.
As for `COC(=O)CCC(NC(=O)c1cccc(N(C)C=O)c1)C(=O)OC` (stereo unspecified), the T/C is, setting by setting: under setting [5], 97 % of control; under setting [6], 95 % of control; (dose: 200.0 mg/kg/injection, schedule: Q01DX009 (ip), vehicle: saline with Tween-80) 105 % of control.
Consider `O=C(CCc1ccccc1)NC(=S)Nc1cc(C(F)(F)F)ccc1Cl`, for which the T/C was 94 % of control under setting [12], 90 % of control under setting [13] and 87 % of control under setting [14].
For `COc1cc(C(=O)Nc2ccccc2F)cc(OC)c1OC`, in that order: 92 % of control, 94 % of control and 97 % of control.
`CCOC(=O)c1n[nH]c(=S)[nH]c1=S`: the T/C is 102 % of control (dose: 100.0 mg/kg/injection, schedule: Q01DX001 (ip), vehicle: acetone); 101 % of control (dose: 200.0 mg/kg/injection, schedule: Q01DX001 (ip), vehicle: acetone); 107 % of control (dose: 400.0 mg/kg/injection, schedule: Q01DX001 (ip), vehicle: acetone).
On to `CN=C(N)c1ccc(N=C(N)c2ccc(N=C(N)c3ccc(N=C(O)c4cccc(C(O)=Nc5ccc(C(N)=Nc6ccc(C(N)=Nc7ccc(C(N)=NC)cc7)cc6)cc5)c4)cc3)cc2)cc1`, for which the T/C (dose: 13.0 mg/kg/injection, schedule: Q01DX015 (ip), vehicle: water) was 186 % of control.
`CC(=O)NC1CCC(CCC2CCCCC2)CC1` (stereo unspecified): the T/C (dose: 100.0 mg/kg/injection, schedule: Q04DX002 (ip), vehicle: saline with Tween-80) is 98 % of control; the T/C (dose: 200.0 mg/kg/injection, schedule: Q04DX002 (ip), vehicle: saline with Tween-80) was 94 % of control; the T/C (dose: 400.0 mg/kg/injection, schedule: Q04DX002 (ip), vehicle: saline with Tween-80) is 98 % of control.
